Data: US20080161320A1, “FUSED BICYCLIC PYRIMIDINES AS PTK INHIBITORS CONTAINING A ZINC BINDING MOIETY” (priority 2006, published 2008)

Experiments:
HDAC = HDAC fluorimetric assay kit (AK-500, Biomol), HeLa nuclear extract; format: biochemical
Procedure: HDAC inhibitors were screened using an HDAC fluorimetric assay kit (AK-500, Biomol, Plymouth Meeting, Pa.). […] Each assay was setup as follows: Defrosted all kit components and kept on ice until use. […] Prepared dilutions of Trichostatin A (TSA, positive control) and tested compounds in assay buffer (5× of final concentration). Diluted Fluor de Lys™ Substrate in assay buffer to 100 uM (50 fold=2× final). Diluted Fluor de Lys™ developer concentrate 20-fold (e.g. 50 μl plus 950 μl Assay Buffer) in cold assay buffer. Second, diluted the 0.2 mM Trichostatin A 100-fold in the 1× Developer (e.g. 10 μl in 1 ml; final Trichostatin A concentration in the 1× Developer=2 μM; final concentration after addition to HDAC/Substrate reaction=1 μM). Added Assay buffer, diluted trichostatin A or test inhibitor to appropriate wells of the microtiter plate. Added diluted HeLa extract or other HDAC sample to all wells except for negative controls.

human EGFR = target: T1, human EGFR (Homo sapiens, UniProt P00533); assay: HTScan Receptor Kinase Assay, EGFR; format: biochemical
T1 construct: human EGFR (His672-Ala1210); GST (N); purchased Cell Signaling Technologies; host or cells: baculovirus expression system

human HER2/ErbB2 = human HER2/ErbB2 (Homo sapiens, UniProt P04626); assay: HTScan Receptor Kinase Assay, HER2/ErbB2;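 note: europium time-resolved fluorescence detection of anti-phosphotyrosine antibody binding to biotinylated FLT3 (Tyr589) peptide phosphorylated by the kinase, 30 min reaction at room temperature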
human VEGFR2 = human VEGFR2 (Homo sapiens, UniProt P35968); assay: HTScan Receptor Kinase Assay, VEGFR2;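 note: recombinant GST-His-tagged human VEGFR2 kinase domain phosphorylating biotinylated gastrin precursor peptide, 30 min at room temperature, phosphotyrosine detected by Europium-labelled antibody time-resolved fluorescence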
human VEGFR2, sequence (P35968 807-1356 limits assumed): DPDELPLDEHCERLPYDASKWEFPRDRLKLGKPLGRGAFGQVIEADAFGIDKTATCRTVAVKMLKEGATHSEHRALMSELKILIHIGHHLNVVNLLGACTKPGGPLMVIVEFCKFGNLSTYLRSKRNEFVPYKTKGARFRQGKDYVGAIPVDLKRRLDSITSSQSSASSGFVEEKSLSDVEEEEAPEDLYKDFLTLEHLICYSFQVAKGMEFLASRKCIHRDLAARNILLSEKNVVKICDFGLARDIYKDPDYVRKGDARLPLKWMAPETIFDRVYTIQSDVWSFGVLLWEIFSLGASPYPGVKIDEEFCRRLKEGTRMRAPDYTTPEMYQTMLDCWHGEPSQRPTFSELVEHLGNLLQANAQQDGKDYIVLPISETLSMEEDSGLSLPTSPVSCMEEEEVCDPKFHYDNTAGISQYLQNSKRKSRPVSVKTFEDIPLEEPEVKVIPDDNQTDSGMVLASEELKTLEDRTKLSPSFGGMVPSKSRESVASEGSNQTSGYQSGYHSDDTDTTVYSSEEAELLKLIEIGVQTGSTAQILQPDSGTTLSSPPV

human HER2/ErbB2, sequence (P04626 676-1255): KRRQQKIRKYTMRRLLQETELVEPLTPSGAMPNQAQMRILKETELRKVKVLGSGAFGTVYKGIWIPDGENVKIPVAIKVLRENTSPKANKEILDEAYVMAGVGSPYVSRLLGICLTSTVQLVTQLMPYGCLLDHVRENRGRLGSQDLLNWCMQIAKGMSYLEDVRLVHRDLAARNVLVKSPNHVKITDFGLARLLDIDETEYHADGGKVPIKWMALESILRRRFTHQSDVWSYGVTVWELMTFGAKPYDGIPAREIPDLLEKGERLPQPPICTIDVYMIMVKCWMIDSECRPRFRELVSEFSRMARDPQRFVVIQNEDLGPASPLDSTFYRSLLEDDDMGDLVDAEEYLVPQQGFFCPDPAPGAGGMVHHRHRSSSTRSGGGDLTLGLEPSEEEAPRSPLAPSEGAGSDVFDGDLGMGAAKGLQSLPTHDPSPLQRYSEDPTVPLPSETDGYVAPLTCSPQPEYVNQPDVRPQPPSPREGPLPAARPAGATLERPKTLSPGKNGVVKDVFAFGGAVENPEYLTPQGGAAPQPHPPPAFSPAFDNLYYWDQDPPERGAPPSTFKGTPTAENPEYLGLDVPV
T1 sequence (P00533 672-1210): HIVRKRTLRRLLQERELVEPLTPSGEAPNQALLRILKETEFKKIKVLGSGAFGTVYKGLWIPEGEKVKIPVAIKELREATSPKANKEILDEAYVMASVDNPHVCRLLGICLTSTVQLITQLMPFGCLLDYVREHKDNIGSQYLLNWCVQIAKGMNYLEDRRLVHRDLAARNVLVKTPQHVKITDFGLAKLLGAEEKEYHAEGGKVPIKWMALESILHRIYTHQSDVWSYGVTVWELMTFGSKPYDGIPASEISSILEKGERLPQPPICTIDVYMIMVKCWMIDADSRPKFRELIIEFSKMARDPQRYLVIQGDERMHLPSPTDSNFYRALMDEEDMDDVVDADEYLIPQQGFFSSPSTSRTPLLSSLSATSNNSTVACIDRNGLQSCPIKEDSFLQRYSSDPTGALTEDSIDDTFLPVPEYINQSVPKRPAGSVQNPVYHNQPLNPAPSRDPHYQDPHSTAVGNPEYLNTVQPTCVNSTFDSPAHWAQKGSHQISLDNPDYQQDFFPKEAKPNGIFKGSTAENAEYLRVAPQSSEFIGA

SMILES | IC50 (HDAC) [nM] | IC50 (human EGFR) [nM] | IC50 (human HER2/ErbB2) [nM] | IC50 (human VEGFR2) [nM]
C[C@@H](Nc1ncnc2[nH]c(-c3ccc(CNCC(=O)NO)cc3)cc12)c1ccccc1 [Compound 1, (R)—N-Hydroxy-2-(4-(4-(1-phenylethylamino)-7H-pyrrolo[2,3-d]pyrimidin-6-yl)benzylamino)acetamide] | 1000 to 10000 | 1000 to 10000 | 1000 to 10000 | 
C[C@@H](Nc1ncnc2[nH]c(-c3ccc(CNCCC(=O)NO)cc3)cc12)c1ccccc1 [Compound 2, (R)—N-Hydroxy-3-(4-(4-(1-phenylethylamino)-7H-pyrrolo[2,3-d]pyrimidin-6-yl)benzylamino)-propanamide] | > 10000 |  |  | 100 to 1000
C[C@@H](Nc1ncnc2[nH]c(-c3ccc(CN4CCN(CC(=O)NO)CC4)cc3)cc12)c1ccccc1 [Compound 11, (R)—N-Hydroxy-2-(4-(4-(4-(1-phenylethylamino)-7H-pyrrolo[2,3-d]pyrimidin-6-yl)benzyl)piperazin-1-yl)acetamide] | > 10000 | < 100 | < 100 | < 100
C[C@@H](Nc1ncnc2[nH]c(-c3ccc(CN4CCN(CCC(=O)NO)CC4)cc3)cc12)c1ccccc1 [Compound 12, (R)—N-Hydroxy-3-(4-(4-(4-(1-phenylethylamino)-7H-pyrrolo[2,3-d]pyrimidin-6-yl)benzyl)piperazin-1-yl)propanamide] | > 10000 | < 100 | < 100 | 100 to 1000
C[C@@H](Nc1ncnc2[nH]c(-c3ccc(CN4CCN(CCCC(=O)NO)CC4)cc3)cc12)c1ccccc1 [Compound 13, (R)—N-Hydroxy-4-(4-(4-(4-(1-phenylethylamino)-7H-pyrrolo[2,3-d]pyrimidin-6-yl)benzyl)piperazin-1-yl)butanamide] | 1000 to 10000 | < 100 | < 100 | 100 to 1000
C[C@@H](Nc1ncnc2[nH]c(-c3ccc(CN4CCN(CCCCC(=O)NO)CC4)cc3)cc12)c1ccccc1 [Compound 14, (R)—N-Hydroxy-5-(4-(4-(4-(1-phenylethylamino)-7H-pyrrolo[2,3-d]pyrimidin-6-yl)benzyl)piperazin-1-yl)pentanamide] | 1000 to 10000 | < 100 | 100 to 1000 | 100 to 1000
C[C@@H](Nc1ncnc2[nH]c(-c3ccc(NC(=O)CCC(=O)NO)cc3)cc12)c1ccccc1 [Compound 24, (R) —N^1-Hydroxy-N^4-(4-(4-(1-phenylethylamino)-7H-pyrrolo[2,3-d]pyrimidin-6-yl)phenyl)succinamide] | > 10000 | < 100 | 100 to 1000 | 100 to 1000
C[C@@H](Nc1ncnc2[nH]c(-c3ccc(CNCc4ccc(/C=C/C(=O)NO)cc4)cc3)cc12)c1ccccc1 [Compound 45, (R,E)-N-hydroxy-3-(4-((4-(4-(1-phenylethylamino)-7H-pyrrolo[2,3-d]pyrimidin-6-yl)benzylamino)methyl)phenyl)acrylamide] |  | > 10000 | > 10000 | > 10000
C[C@@H](Nc1ncnc2[nH]c(-c3ccc(NC(=O)Nc4ccc(/C=C/C(=O)NO)cc4)cc3)cc12)c1ccccc1 [Compound 47] | 1000 to 10000 |  |  | 
C[C@@H](Nc1ncnc2[nH]c(-c3ccc(CN4CCN(CCOCCCCC(=O)NO)CC4)cc3)cc12)c1ccccc1 [Compound 50, (R)—N-hydroxy-5-(2-(4-(4-(4-(1-phenylethylamino)-7H-pyrrolo[2,3-d]pyrimidin-6-yl)benzyl)piperazin-1-yl)ethoxy)pentanamide] | 1000 to 10000 |  |  | 
C[C@@H](Nc1ncnc2[nH]c(-c3ccc(CN4CCC(NCCCCCC(=O)NO)CC4)cc3)cc12)c1ccccc1 [Compound 55, (R)—N-hydroxy-6-(1-(4-(4-(1-phenylethylamino)-7H-pyrrolo[2,3-d]pyrimidin-6-yl)benzyl)piperidin-4-ylamino)hexanamide] | 1000 to 10000 |  |  | 
C[C@@H](Nc1ncnc2[nH]c(-c3ccc(CN4CCC(NCCCCCCC(=O)NO)CC4)cc3)cc12)c1ccccc1 [Compound 56, (R)—N-hydroxy-7-(1-(4-(4-(1-phenylethylamino)-7H-pyrrolo[2,3-d]pyrimidin-6-yl)benzyl)piperidin-4-ylamino)heptanamide] | 1000 to 10000 |  |  | 
C[C@@H](Nc1ncnc2[nH]c(-c3ccc(OCCNCCCCCC(=O)NO)cc3)cc12)c1ccccc1 [Compound 59, (R)—N-hydroxy-6-(2-(4-(4-(1-phenylethylamino)-7H-pyrrolo[2,3-d]pyrimidin-6-yl)phenoxy)ethylamino)hexanamide] | 100 to 1000 |  |  | 
C[C@@H](Nc1ncnc2[nH]c(-c3ccc(OCCNCCCCCCCC(=O)NO)cc3)cc12)c1ccccc1 [Compound 61, (R)—N-hydroxy-8-(2-(4-(4-(1-phenylethylamino)-7H-pyrrolo[2,3-d]pyrimidin-6-yl)phenoxy)ethylamino)octanamide] | 100 to 1000 |  | < 100 | 
C[C@@H](Nc1ncnc2[nH]c(-c3ccc(OCCCNCCCCCC(=O)NO)cc3)cc12)c1ccccc1 [Compound 62] | 1000 to 10000 |  |  | 
C[C@@H](Nc1ncnc2c1cc(-c1ccc(CNCCN)cc1)n2CCCCCC(=O)NO)c1ccccc1 [Compound 63] | 100 to 1000 |  |  | 
C[C@@H](Nc1ncnc2c1cc(-c1ccc(N)cc1)n2CCCCCC(=O)NO)c1ccccc1 [Compound 64] | 100 to 1000 |  |  | 
C[C@@H](Nc1ncnc2[nH]c(-c3ccc(NCCCCCC(=O)NO)cc3)cc12)c1ccccc1 [Compound 66, (R)—N-hydroxy-6-(4-(4-(1-phenylethylamino)-7H-pyrrolo[2,3-d]pyrimidin-6-yl)phenylamino)hexanamide] |  | < 100 | < 100 | < 100

Second part, the compound after the results:

IC50 (HDAC) [nM] | IC50 (human EGFR) [nM] | IC50 (human HER2/ErbB2) [nM] | IC50 (human VEGFR2) [nM] | SMILES
100 to 1000 |  | 100 to 1000 | 100 to 1000 | C[C@@H](Nc1ncnc2[nH]c(-c3ccc(CN4CCN(CCCCCC(=O)NO)CC4)cc3)cc12)c1ccccc1 [Compound 15, (R)—N-Hydroxy-6-(4-(4-(4-(1-phenylethylamino)-7H-pyrrolo[2,3-d]pyrimidin-6-yl)benzyl)piperazin-1-yl)hexanamide]
100 to 1000 | < 100 | < 100 | 100 to 1000 | C[C@@H](Nc1ncnc2[nH]c(-c3ccc(CN4CCN(CCCCCCC(=O)NO)CC4)cc3)cc12)c1ccccc1 [Compound 16, (R)—N-Hydroxy-7-(4-(4-(4-(1-phenylethylamino)-7H-pyrrolo[2,3-d]pyrimidin-6-yl)benzyl)piperazin-1-yl)heptanamide]
100 to 1000 | < 100 | 100 to 1000 | 100 to 1000 | C[C@@H](Nc1ncnc2[nH]c(-c3ccc(OCCCC(=O)NO)cc3)cc12)c1ccccc1 [Compound 19, (R)—N-Hydroxy-4-(4-(4-(1-phenylethylamino)-7H-pyrrolo[2,3-d]pyrimidin-6-yl)phenoxy)propanamide]
100 to 1000 | < 100 | 100 to 1000 | 100 to 1000 | C[C@@H](Nc1ncnc2[nH]c(-c3ccc(OCCCCC(=O)NO)cc3)cc12)c1ccccc1 [Compound 20, (R)—N-Hydroxy-5-(4-(4-(1-phenylethylamino)-7H-pyrrolo[2,3-d]pyrimidin-6-yl)phenoxy)pentanamide]
< 100 | < 100 | 100 to 1000 | 1000 to 10000 | C[C@@H](Nc1ncnc2[nH]c(-c3ccc(OCCCCCC(=O)NO)cc3)cc12)c1ccccc1 [Compound 21, (R)—N-hydroxy-6-(4-(4-(1-phenylethylamino)-7H-pyrrolo[2,3-d]pyrimidin-6-yl)phenoxy)hexanamide]
< 100 | < 100 | 100 to 1000 | < 100 | C[C@@H](Nc1ncnc2[nH]c(-c3ccc(OCCCCCCC(=O)NO)cc3)cc12)c1ccccc1 [Compound 22, (R)—N-hydroxy-7-(4-(4-(1-phenylethylamino)-7H-pyrrolo[2,3-d]pyrimidin-6-yl)phenoxy)heptanamide]
100 to 1000 |  | 100 to 1000 | 100 to 1000 | C[C@@H](Nc1ncnc2[nH]c(-c3ccc(CN4CCN(CCCCCC(=O)NO)CC4)cc3)cc12)c1ccc(F)cc1 [Compound 35]
100 to 1000 |  |  |  | C[C@@H](Nc1ncnc2[nH]c(-c3ccc(NC(=O)Nc4ccc(C(=O)NO)cc4)cc3)cc12)c1ccccc1 [Compound 46]
< 100 |  |  |  | C[C@@H](Nc1ncnc2[nH]c(-c3ccc(CN4CCN(CCOCCCCCC(=O)NO)CC4)cc3)cc12)c1ccccc1 [Compound 51, (R)—N-hydroxy-6-(2-(4-(4-(4-(1-phenylethylamino)-7H-pyrrolo[2,3-d]pyrimidin-6-yl)benzyl)piperazin-1-yl)ethoxy)hexanamide]
100 to 1000 |  | < 100 |  | C[C@@H](Nc1ncnc2[nH]c(-c3ccc(CN4CCC(NCCCCCCCC(=O)NO)CC4)cc3)cc12)c1ccccc1 [Compound 57, (R)—N-hydroxy-8-(1-(4-(4-(1-phenylethylamino)-7H-pyrrolo[2,3-d]pyrimidin-6-yl)benzyl)piperidin-4-ylamino)octanamide]
100 to 1000 |  | 100 to 1000 | 1000 to 10000 | C[C@@H](Nc1ncnc2c1cc(-c1ccc(C(=O)NCCNCCCCCCC(=O)NO)cc1)n2C)c1ccccc1 [Compound 58]
< 100 |  |  |  | C[C@@H](Nc1ncnc2c1cc(-c1ccc(N)cc1)n2CCCCCCC(=O)NO)c1ccccc1 [Compound 65]
